Where two headings read alike, the source gives them in different places.
How the values were obtained:
bovine nasal cartilage = assay: Ex vivo IL-2-stimulated bovine nasal cartilage destruction model; assay type: cell-based; design: Inhibition of IL-2-stimulated bovine nasal cartilage destruction: unit not given here; details: for inhibition at 1 µM / inhibition at 10 µM / inhibition at 100 µM: Bos taurus, read-out: Inhibition of IL-2-stimulated bovine nasal cartilage destruction
TNF = assay: Cytokine inhibition profile: TNF; assay type: cell-based; details: read-out: Inhibition Profile (IC50) TNF
IL-1 = assay: Cytokine inhibition profile: IL-1; assay type: cell-based; details: read-out: Inhibition Profile (IC50) IL-1
IL-6 = assay: Cytokine inhibition profile: IL-6; assay type: cell-based; details: read-out: Inhibition Profile (IC50) IL-6
Interleukin-8 (IL-8) = assay: Cytokine inhibition profile: IL-8; assay type: cell-based
IL-2 = assay: Cytokine inhibition profile: IL-2; assay type: cell-based; details: read-out: Inhibition Profile (IC50) IL-2
T-cell proliferation = assay: T-cell (lymphocyte) proliferation inhibition; assay type: cell-based, human
IFN gamma = assay: Cytokine inhibition profile: IFN gamma; assay type: cell-based; details: read-out: Inhibition Profile (IC50) IFN gamma
[1] = read-out: Inhibition Profile (IC50) T-cell proliferation

Row | SMILES | Inhibition of IL-2-stimulated bovine nasal cartilage destruction (bovine nasal cartilage; 10 μM) | IC50 (TNF) | IC50 (IL-1) | IC50 (IL-6) | IC50 (Interleukin-8 (IL-8)) | IC50 (IL-2) | IC50 (T-cell proliferation; [1]) | IC50 (IFN gamma) | Inhibition of IL-2-stimulated bovine nasal cartilage destruction (bovine nasal cartilage; 1 μM) | Inhibition of IL-2-stimulated bovine nasal cartilage destruction (bovine nasal cartilage; 100 μM) | Inhibition Profile (IC50) IL-8 (Interleukin-8 (IL-8)) | also measured
1 | OC(c1cc(C(F)(F)F)nc2c(C(F)(F)F)cccc12)C1CCCCN1 (racemic) [(+/−) Mefloquine, mefloquine] | 20 |  |  |  |  |  |  |  |  |  |  | 
2 | OC(c1cc(C(F)(F)F)nc2c(C(F)(F)F)cccc12)C1CCCCN1 (single isomer, unassigned; (-)) [(−)Mefloquine] | 45 | 18 µM | 79 µM | 43 µM | 63 µM | 17 µM | 10 µM | 18 µM | 37 | 82 |  | 
3 | O[C@H](c1cc(C(F)(F)F)nc2c(C(F)(F)F)cccc12)[C@@H]1CCCCN1 [(+)Mefloquine, (+)-Erythro-mefloquine] | 44 | 24 µM | 68 µM | 53 µM | 41 µM | 17 µM | 11 µM | 17 µM | 32 | 71 |  | Suppression of human lymphocyte proliferation, in words (T-cell proliferation): suppresses
4 | CCN(CC)CCCC(C)Nc1ccnc2cc(Cl)ccc12 (stereo not shown) [Chloroquine, chloroquine] |  | 21 µM | 6.3 µM | 81 µM |  | 66 µM |  | 63 µM |  |  | Inactive | IC50 (T-cell proliferation; Homo sapiens, T-cell, read-out: Inhibition Profile (IC50) T-cell proliferation): 13 µM; inhibition at 1 µM (bovine nasal cartilage): 3%; inhibition at 10 µM (bovine nasal cartilage): 6%; inhibition at 100 µM (bovine nasal cartilage): 35%
5 | CCN(CCO)CCCC(C)Nc1ccnc2cc(Cl)ccc12 (stereo not shown) [Hydroxychloroquine, hydroxychloroquine] |  | 32.2 µM | 21 µM | 90 µM |  | 94 µM |  | 94 µM |  |  | Inactive | Activity against Interleukin-8 (IL-8), in words (Interleukin-8 (IL-8)): inactive; IC50 (T-cell proliferation; Homo sapiens, T-cell; read-out: Inhibition Profile (IC50) T-cell proliferation): 16 µM; inhibition at 1 µM (bovine nasal cartilage; 1 μM): 4%; inhibition at 10 µM (bovine nasal cartilage; 10 μM): 3%; inhibition at 100 µM (bovine nasal cartilage; 100 μM): 36%
